Series [1] has as its target T1, matriptase (Homo sapiens, UniProt Q9Y5Y6).
T1 construct: purchased R&D Systems (Bio-Techne) 3946-SEB
T1 sequence (Q9Y5Y6 615-855 limits assumed): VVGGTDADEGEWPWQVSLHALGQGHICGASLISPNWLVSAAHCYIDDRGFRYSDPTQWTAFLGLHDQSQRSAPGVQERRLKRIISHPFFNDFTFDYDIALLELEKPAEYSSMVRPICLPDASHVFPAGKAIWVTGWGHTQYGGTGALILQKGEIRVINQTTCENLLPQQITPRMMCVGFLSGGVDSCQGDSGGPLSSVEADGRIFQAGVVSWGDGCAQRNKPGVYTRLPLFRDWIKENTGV
Nature of the series: E. coli display cleavage reporter assay, flow cytometry, matriptase treatment. The series is classed as biochemical. The note with it: for cleavage reporter signal of matriptase-treated compared to untreated cells / time to complete cleavage: E. coli-displayed substrate; for cleavage reporter signal of matriptase-treated compared to untreated cells: 100 nM matriptase, 30 min, 37°C, n = 3; for time to complete cleavage: flow cytometry; for relative cleavage efficiency group (high, medium, low): E. coli-displayed substrate, 1, 10, 25 and 50 nM matriptase over 90 min. Background: Reporter assays use an easily measured gene product as a stand-in for the process of interest.

Series [2] deals with T1, matriptase. In words: Cleavage of soluble substrates in affibody-ABD format, SDS-PAGE. It counts as biochemical. The note with it: 37°C; for cleavage: affibody-ABD fusion 50 μg/mL in PBS, SDS-PAGE densitometry (ImageJ). As to the method:
Affibody-ABD substrates (50 μg/mL in PBS) were treated with 1, 10, or 50 nM matriptase at 37°C for 10, 30, or 60 min. Reactions were quenched by adding SDS loading buffer (31.2 mM Tris-HCl, pH 6.8, 1% SDS, 12.5% glycerol, 0.01% bromophenol blue, 5 mM TCEP) and heating at 90°C for 10 min. Samples were analyzed by SDS-PAGE as above. High-resolution gel images (600 dpi) were analyzed using ImageJ (v1.54i). Band intensities were quantified to assess the fraction of cleaved vs. intact substrate. Data were processed in Microsoft Excel and visualized with GraphPad Prism 10.

The target of the next series is T2, legumain (Homo sapiens, UniProt Q99538).
T2 construct: purchased R&D Systems (Bio-Techne) 2199-CY
T2 sequence (Q99538 18-433): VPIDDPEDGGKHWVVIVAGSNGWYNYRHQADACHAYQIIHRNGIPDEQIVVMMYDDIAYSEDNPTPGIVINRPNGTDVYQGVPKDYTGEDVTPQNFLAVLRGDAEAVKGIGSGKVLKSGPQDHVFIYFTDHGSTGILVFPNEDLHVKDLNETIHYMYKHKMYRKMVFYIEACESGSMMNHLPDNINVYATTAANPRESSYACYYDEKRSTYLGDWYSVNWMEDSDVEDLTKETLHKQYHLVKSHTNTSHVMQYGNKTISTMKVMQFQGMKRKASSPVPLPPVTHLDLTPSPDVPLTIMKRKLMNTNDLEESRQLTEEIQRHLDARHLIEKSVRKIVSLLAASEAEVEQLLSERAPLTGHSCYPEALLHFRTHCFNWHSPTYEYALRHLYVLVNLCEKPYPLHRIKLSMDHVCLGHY
In words: FRET substrate stability against legumain. The series is classed as in vitro ADME. The note with it: 30 μM Abz/Dnp peptide, 10 nM legumain, appropriate buffer, 37°C, 100 min (6,000 s), fluorescence, three replicates. How it is done: (§1) (cysteine protease), urokinase plasminogen[36] (uPA; serine protease), and MMP-2[37] (matrix metalloprotease), respectively.
(§2) Initial velocity (V0) was calculated from early linear slopes. […] Fluorescence was recorded for 6000 s.

Series [3] concerns the target urokinase-type plasminogen activator (uPA) (Homo sapiens, UniProt P00749). Nature of the series: FRET substrate stability against uPA. The series is classed as in vitro ADME. The note with it: 30 μM Abz/Dnp peptide, 10 nM uPA, appropriate buffer, 37°C, 100 min (6,000 s), fluorescence, three replicates. As to the method:
as §1, §2

In another series the target is TEV protease (Tobacco etch virus, UniProt P04517). Nature of the series: E. coli display cleavage reporter assay, flow cytometry, TEV protease treatment. The note with it: E. coli-displayed substrate, 100 nM TEV, 30 min, 30°C, n = 3.
Series [4] concerns the target T1, matriptase. Nature of the series: FRET-based kinetic analysis of matriptase cleavage. The series is classed as biochemical. The note with it: 10 nM matriptase; for substrate cleavage by matriptase under identical conditions: 30 μM Abz/Dnp peptide, 37°C, 6,000 s, three replicates; for Vmax / Km / kcat/KM / kcat: Abz/Dnp-labelled 6-mer peptide, PBS, 37°C, n = 3; for Vmax / Km / kcat: Michaelis-Menten fit; for Vmax / kcat/KM / kcat: average ± SD; for kcat: serial dilution of substrate, 90 min, Ex 320/Em 420 nm.

Series [5] concerns the target T1, matriptase. It counts as biochemical.
Series [6] concerns the target T1, matriptase. The note with it: previously reported value; cited from earlier work. As to the method:
The most promising newly discovered substrates (MtpB9, MtpC5, and MtpC9), along with control substrates, were chemically synthesized and linked to 2-aminobenzoyl (Abz) and 2,4-dinitrophenyl (Dnp), a standard fluorophore/quencher combination used in FRET assays (Figure 4A). A serial dilution of the substrates (ranging from 120 to 1.75 μM) was used to monitor matriptase cleavage activity. The reaction was tracked by measuring the Abz fluorescence continuously for 90 min. Kinetic parameters were calculated by fitting the cleavage rates to substrate concentrations using the Michaelis-Menten equati ...

Where “and” joins values, the source holds several entries; their conditions need not be identical. Equal entries are not always repeated. Where two headings read alike, the source gives them in different places.

Chain of TEV protease (P04517 2038-2279): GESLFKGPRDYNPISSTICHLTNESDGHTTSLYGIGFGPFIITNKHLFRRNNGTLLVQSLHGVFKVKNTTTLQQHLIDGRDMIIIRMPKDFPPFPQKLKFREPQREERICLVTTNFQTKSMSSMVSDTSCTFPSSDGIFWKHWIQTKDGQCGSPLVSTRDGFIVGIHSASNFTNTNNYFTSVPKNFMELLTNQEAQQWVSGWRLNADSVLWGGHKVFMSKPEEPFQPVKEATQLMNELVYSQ

Take “ENLYFQG [TEV-control, reference compound]”: the “cleavage reporter signal of matriptase-treated compared to untreated cells” value on matriptase [1] is listed as “No significant difference”. On matriptase [2] (affibody-ABD fusion, 1, 10 or 50 nM matriptase, 10, 30 or 60 min, SDS-PAGE), the “cleavage under any tested conditions” value was “no cleavage”. The “substrate cleavage by legumain” value at legumain is “No detectable cleavage”. Moreover, in series [3], the “substrate cleavage by uPA” value is “No detectable cleavage”. In addition, the “cleavage reporter signal of TEV-treated compared to untreated cells” value on TEV protease is on record as “significantly lower signals”.
As usually defined, the Vmax is the top rate of the reaction or transport when substrate is in excess. For orientation: Km means the concentration of substrate that gives half-maximal velocity. As a reminder, the kcat is the maximal rate divided by the concentration of active sites. For the substance GAKSRR [MtpB9], the “time to complete cleavage” value at matriptase [1] (10 nM matriptase) is recorded as 60 min. In addition, the “time to complete cleavage” value at matriptase [1] (25 nM matriptase) is given as at most 30 min. Besides, the “relative cleavage efficiency group (high, medium, low)” value (“relative cleavage efficiency group” below) on matriptase [1] was “high”. On matriptase [4], the “substrate cleavage by matriptase under identical conditions” value (“substrate cleavage by matriptase” below) is “cleavage was observed”, the Vmax stood at 0.04 ± 0.0007 µM/s, the Km was determined as 18.7 µM and the kcat/KM is reported as 2.3E+05 ± 3,948 M^−1 s^−1. In addition, the turnover number (kcat) on matriptase [4] amounted to 4.4 ± 0.07 s⁻¹. Also, the “substrate cleavage by legumain” value at legumain is “No detectable substrate cleavage”. Also, the “substrate cleavage by uPA” value in series [3] was “No detectable substrate cleavage”. Besides, the “time to complete cleavage” value on matriptase [5] is reported as at most 30 min.
Take HYKGRK [MtpC9]: at matriptase [1] (10 nM matriptase), the “time to complete cleavage” value is given as 60 min. Also, the “time to complete cleavage” value on matriptase [1] (25 nM matriptase) was at most 30 min. For the same substance, the “relative cleavage efficiency group” value at matriptase [1] is “high”. Moreover, on matriptase [4], the “substrate cleavage by matriptase” value is recorded as “cleavage was observed”, the Vmax is 0.06 ± 0.0021 µM/s, the Km worked out at 29.1 µM and the kcat/KM was 1.9E+05 ± 7,099 M^−1 s^−1. The kcat at matriptase [4] was determined as 5.6 ± 0.21 s⁻¹. Besides, the “substrate cleavage by legumain” value at legumain is on record as “No detectable substrate cleavage”. For the same substance, in series [3], the “substrate cleavage by uPA” value is “No detectable substrate cleavage”. Besides, the “time to complete cleavage” value on matriptase [5] is at most 30 min.
As to LKRLMR [MtpA6], the “relative cleavage efficiency group” value on matriptase [1] was “low”.
With “LSGRSDNH [Mtp-control, reference compound]”, the “cleavage reporter signal of matriptase-treated compared to untreated cells” value at matriptase [1] is “significantly lower signals”. Moreover, at matriptase [2] (50 nM matriptase, 1 h), the cleavage came to 96%. In addition, at matriptase [4], the Vmax amounted to 0.02 ± 0.0057 µM/s; the Km was determined as 191 µM; the kcat/KM was 1.28E+04 ± 2,969 M^−1 s^−1 and 1.3E+04 ± 2,969 M^−1 s^−1; the kcat was determined as 2.5 ± 0.57 s⁻¹. The “substrate cleavage by legumain” value at legumain was “No detectable cleavage”. In addition, in series [3], the “substrate cleavage by uPA” value is “No detectable cleavage”. Besides, the “kcat/KM in the previous study” value at matriptase [6] was 2200 M⁻¹ s⁻¹. In addition, at TEV protease, the “cleavage reporter signal of TEV-treated compared to untreated cells” value is on record as “No significant difference”.
For MGRSFY [MtpB11], the “relative cleavage efficiency group” value at matriptase [1] was “medium”.
Same read-out and setting: the same measure for MKRKAR [MtpC10]: “medium”; for PFKRQL [MtpC12]: “low”.
Take VPRGRR [MtpC5]: on matriptase [1] (10 nM matriptase), the “time to complete cleavage” value was found to be 60 min. At matriptase [1] (25 nM matriptase), the “time to complete cleavage” value is on record as at most 30 min. For the same substance, the “relative cleavage efficiency group” value at matriptase [1] is given as “high”. Besides, on matriptase [2] (1 nM matriptase, 10 min, two replicates), the cleavage entry is given as “approximately 86%”. For the same substance, on matriptase [4], the “substrate cleavage by matriptase” value is “cleavage was observed”; the Vmax is 0.06 ± 0.0005 µM/s; the Km came to 12.5 µM; the kcat/KM is 5.13E+05 ± 3,910 M^−1 s^−1 and 5.1E+05 ± 3,910 M^−1 s^−1. Besides, the kcat on matriptase [4] is 6.4 ± 0.05 s⁻¹. In addition, the “substrate cleavage by legumain” value at legumain is on record as “No detectable substrate cleavage”. Besides, in series [3], the “substrate cleavage by uPA” value was “No detectable substrate cleavage”. Also, the “time to complete cleavage” value at matriptase [5] is recorded as at most 30 min.

The values are drawn from publication PMC12272249, “Engineering high-efficiency matriptase substrates using E. coli display for applications in prodrug activation” (Cell Reports Methods, 2025).
